From patent US10294256B2, “Phosphine oxide alkyl amide substituted heteroaryl compounds as modulators of IL-12, IL-23 and/or IFN alpha responses” (BRISTOL-MYERS SQUIBB COMPANY, priority 2016, dated 2019)
Like-named read-outs stand apart in the source and are kept apart here.

What was measured:
[1] = target: recombinant human His-tagged Tyk2 pseudokinase domain (His-TVMV-Tyk2, 575-869) (Homo sapiens, UniProt P29597); assay: Probe Displacement Assay (HTRF Format); conditions: 0.5 nM Tyk2 pseudokinase domain, 1 h room temperature, read-out: Binding IC50
Procedure: To 10 μL 26 nM fluorescein labeled probe plus 0.2 nM anti-6×His-terbium labeled antibody (Medarex, labeled by Cisbio) in assay buffer (20 mM Hepes pH 7.5, 150 mM NaCl, 10 mM MgCl2, 2 mM DTT, 50 μg/mL BSA, and 0.015% Brij 35) was added 10 μL recombinant human His-tagged Tyk2 pseudokinase domain (His-TVMV-Tyk2, 575-869) to a final concentration of 0.5 nM. After 1 h at room temperature, the HTRF signal (ratio of fluorescence intensities at emission wavelengths for fluorescein acceptor at 520 nm and terbium donor at 495 nm) was measured on an Envision Plate Reader. Percent inhibition was calculated by comparison to a control without inhibitor and a control without protein.
Protein Sequence of recombinant His-tagged Tyk2 (575-869): […]

[2] = tested on: IL-23 stimulated Kit225 T cells with STAT-dependent luciferase reporter; assay: Kit225 T Cell Assay, IL-23 stimulated STAT-dependent luciferase reporter; assay type: cell-based, human
Procedure: (§1) Kit225 T cells with a stably-integrated STAT-dependent luciferase reporter were plated in RPMI (Gibco) containing 10% heat-inactivated FBS (Gibco) and 100 U/mL PenStrep (Gibco). The cells were then stimulated with either 20 ng/mL human recombinant IL-23 or 200 U/mL human recombinant IFNα (PBL InterferonSource) for 5-6 hours. Luciferase expression was measured using the STEADY-GLO® Luciferase Assay System (Promega) according to the manufacturer's instructions. Inhibition data were calculated by comparison to no inhibitor control wells for 0% inhibition and non-stimulated control wells for 100% inhibition.

[3] = tested on: IFNα stimulated Kit225 T cells with STAT-dependent luciferase reporter; assay: Kit225 T Cell Assay, IFNα stimulated STAT-dependent luciferase reporter; assay type: cell-based, human
Procedure: as §1

[4] = KIT225, 20 ng/mL human recombinant IL-23, 5-6 hours, luciferase reporter, read-out: IL23 Kit 225 IC50
[5] = KIT225, 200 U/mL human recombinant IFNα, 5-6 hours, luciferase reporter, read-out: IFN[…] Kit 225 IC50

Sequence of recombinant human His-tagged Tyk2 pseudokinase domain (His-TVMV-Tyk2, 575-869) (P29597 with tags, fused parts or gaps): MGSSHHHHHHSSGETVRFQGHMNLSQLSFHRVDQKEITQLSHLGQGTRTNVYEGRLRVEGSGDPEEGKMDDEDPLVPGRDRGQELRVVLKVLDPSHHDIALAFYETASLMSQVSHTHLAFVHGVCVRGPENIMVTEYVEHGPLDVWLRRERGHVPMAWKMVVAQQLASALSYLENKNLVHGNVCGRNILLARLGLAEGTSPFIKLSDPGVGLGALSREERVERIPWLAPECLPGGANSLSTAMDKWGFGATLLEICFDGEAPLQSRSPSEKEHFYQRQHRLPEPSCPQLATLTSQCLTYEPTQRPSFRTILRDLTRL

Structure (SMILES): [2H]C([2H])([2H])NC(=O)c1nnc(Nc2cc(C3CC3)ccn2)cc1Nc1ccccc1P(C)(C)=O [Example 1]
- IC50 [1]: 3.4 nM
- IC50 [2, 4]: 383 nM
- IC50 [3, 5]: 242 nM

Structure (SMILES): [2H]C([2H])([2H])NC(=O)c1nnc(NC(=O)C2CC2)cc1Nc1ccccc1P(C)(C)=O [Example 2]
- IC50 [1]: 7.4 nM
- IC50 [2, 4]: 1800 nM
- IC50 [3, 5]: 3170 nM

Structure (SMILES): [2H]C([2H])([2H])NC(=O)c1nnc(Nc2cc(C)nc(C)n2)cc1Nc1ccccc1P(C)(C)=O [Example 3]
- IC50 [1]: 1.6 nM
- IC50 [2, 4]: 3470 nM
- IC50 [3, 5]: 1560 nM

Structure (SMILES): [2H]C([2H])([2H])NC(=O)c1nnc(Nc2ccc(OC)nn2)cc1Nc1ccccc1P(C)(C)=O [Example 4]
- IC50 [1]: 10 nM
- IC50 [2, 4]: 2570 nM
- IC50 [3, 5]: 9160 nM

Structure (SMILES): [2H]C([2H])([2H])NC(=O)c1nnc(Nc2ccc(C3CC3)cn2)cc1Nc1ccccc1P(C)(C)=O [Example 5]
- IC50 [1]: 5.2 nM
- IC50 [2, 4]: 390 nM
- IC50 [3, 5]: 337 nM

Structure (SMILES): [2H]C([2H])([2H])NC(=O)c1nnc(Nc2ccc(C(C)(C)O)cn2)cc1Nc1ccccc1P(C)(C)=O [Example 6]
- IC50 [1]: 2.2 nM
- IC50 [2, 4]: 3110 nM
- IC50 [3, 5]: 423 nM

Structure (SMILES): [2H]C([2H])([2H])NC(=O)c1nnc(Nc2ccc(N3CCOCC3)cn2)cc1Nc1ccccc1P(C)(C)=O [Example 7]
- IC50 [1]: 13 nM
- IC50 [2, 4]: 1440 nM
- IC50 [3, 5]: 799 nM

Structure (SMILES): [2H]C([2H])([2H])NC(=O)c1nnc(Nc2ccn(C)n2)cc1Nc1ccccc1P(C)(C)=O [Example 8]
- IC50 [1]: 12 nM
- IC50 [2, 4]: 3700 nM
- IC50 [3, 5]: 1760 nM

Structure (SMILES): [2H]C([2H])([2H])NC(=O)c1nnc(NC(=O)C2CC2)cc1Nc1ncccc1P(C)(C)=O [Example 9]
- IC50 [1]: 1.4 nM
- IC50 [2, 4]: 282 nM
- IC50 [3, 5]: 514 nM

Structure (SMILES): [2H]C([2H])([2H])NC(=O)c1nnc(Nc2cc(C3CC3)ccn2)cc1Nc1ncccc1P(C)(C)=O [Example 12]
- IC50 [1]: 0.74 nM
- IC50 [2, 4]: 92 nM
- IC50 [3, 5]: 144 nM

Structure (SMILES): [2H]C([2H])([2H])NC(=O)c1nnc(Nc2ccc(OC(F)(F)F)cn2)cc1Nc1ncccc1P(C)(C)=O [Example 13]
- IC50 [1]: 0.43 nM
- IC50 [2, 4]: 44 nM
- IC50 [3, 5]: 22 nM

Structure (SMILES): [2H]C([2H])([2H])NC(=O)c1nnc(Nc2ccccn2)cc1Nc1ncccc1P(C)(C)=O [Example 14]
- IC50 [1]: 0.79 nM
- IC50 [2, 4]: 212 nM
- IC50 [3, 5]: 125 nM

Structure (SMILES): [2H]C([2H])([2H])NC(=O)c1nnc(Nc2ccc(F)cn2)cc1Nc1ncccc1P(C)(C)=O [Example 15]
- IC50 [1]: 0.54 nM
- IC50 [2, 4]: 114 nM
- IC50 [3, 5]: 48 nM

Structure (SMILES): [2H]C([2H])([2H])NC(=O)c1nnc(Nc2ccc(C(C)(C)O)cn2)cc1Nc1ncccc1P(C)(C)=O [Example 16]
- IC50 [1]: 0.29 nM
- IC50 [2, 4]: 1210 nM
- IC50 [3, 5]: 673 nM

Structure (SMILES): [2H]C([2H])([2H])NC(=O)c1nnc(Nc2ccc(C3CC3)cn2)cc1Nc1ncccc1P(C)(C)=O [Example 17]
- IC50 [1]: 0.27 nM
- IC50 [2, 4]: 58 nM
- IC50 [3, 5]: 43 nM

Structure (SMILES): [2H]C([2H])([2H])NC(=O)c1nnc(Nc2cccc(C)n2)cc1Nc1ncccc1P(C)(C)=O [Example 18]
- IC50 [1]: 0.44 nM
- IC50 [2, 4]: 58 nM
- IC50 [3, 5]: 33 nM

Structure (SMILES): [2H]C([2H])([2H])NC(=O)c1nnc(NC(=O)OCC)cc1Nc1ncccc1P(C)(C)=O [Example 19]
- IC50 [1]: 9.8 nM
- IC50 [2, 4]: 817 nM
- IC50 [3, 5]: 4160 nM

Structure (SMILES): [2H]C([2H])([2H])NC(=O)c1nnc(Nc2cc(COC)ccn2)cc1Nc1ncccc1P(C)(C)=O [Example 20]
- IC50 [1]: 0.58 nM
- IC50 [2, 4]: 67 nM
- IC50 [3, 5]: 50 nM

Structure (SMILES): [2H]C([2H])([2H])NC(=O)c1nnc(Nc2cc(C)ccn2)cc1Nc1ncccc1P(C)(C)=O [Example 21]
- IC50 [1]: 0.62 nM
- IC50 [2, 4]: 19 nM
- IC50 [3, 5]: 50 nM

Structure (SMILES): [2H]C([2H])([2H])NC(=O)c1nnc(Nc2cccc(F)n2)cc1Nc1ncccc1P(C)(C)=O [Example 22]
- IC50 [1]: 0.037 nM
- IC50 ([2]; Homo sapiens, KIT225, read-out: IL23 Kit 225 IC50): 40 nM
- IC50 ([3]; Homo sapiens, KIT225, read-out: IFN[…] Kit 225 IC50): 15 nM

Structure (SMILES): [2H]C([2H])([2H])NC(=O)c1nnc(Nc2ccn(C)n2)cc1Nc1ncccc1P(C)(C)=O [Example 23]
- IC50 [1]: 2 nM
- IC50 [2, 4]: 1150 nM
- IC50 [3, 5]: 666 nM

Structure (SMILES): [2H]C([2H])([2H])NC(=O)c1nnc(Nc2cccc(OC)n2)cc1Nc1ncccc1P(C)(C)=O [Example 24]
- IC50 [1]: 0.97 nM
- IC50 [2, 4]: 84 nM
- IC50 [3, 5]: 33 nM

Structure (SMILES): [2H]C([2H])([2H])NC(=O)c1nnc(Nc2cc(F)ccn2)cc1Nc1ncccc1P(C)(C)=O [Example 25]
- IC50 [1]: 0.58 nM
- IC50 [2, 4]: 132 nM
- IC50 [3, 5]: 90 nM

Structure (SMILES): [2H]C([2H])([2H])NC(=O)c1nnc(NC(=O)[C@H]2CC2(C)C)cc1Nc1ncccc1P(C)(C)=O [Example 27]
- IC50 [1]: 13 nM
- IC50 [2, 4]: 12500 nM
- IC50 [3, 5]: 4610 nM

Structure (SMILES): [2H]C([2H])([2H])NC(=O)c1nnc(NC(=O)C2CC2(C)C)cc1Nc1ncccc1P(C)(C)=O (stereo not drawn) [Example 28]
- IC50 [1]: 17 nM
- IC50 [2, 4]: 6320 nM
- IC50 [3, 5]: 6340 nM

Structure (SMILES): [2H]C([2H])([2H])NC(=O)c1nnc(Nc2ccc(C)c(C)n2)cc1Nc1ncccc1P(C)(C)=O [Example 29]
- IC50 [1]: 0.54 nM
- IC50 [2, 4]: 62 nM
- IC50 [3, 5]: 22.8 nM

Structure (SMILES): [2H]C([2H])([2H])NC(=O)c1nnc(Nc2ccc(C)cn2)cc1Nc1ncccc1P(C)(C)=O [Example 30]
- IC50 [1]: 0.56 nM
- IC50 [2, 4]: 121 nM
- IC50 [3, 5]: 32.3 nM

Structure (SMILES): [2H]C([2H])([2H])NC(=O)c1nnc(Nc2ccc(F)c(C)n2)cc1Nc1ncccc1P(C)(C)=O [Example 31]
- IC50 [1]: 0.54 nM
- IC50 [2, 4]: 45.3 nM
- IC50 [3, 5]: 53.9 nM

Structure (SMILES): [2H]C([2H])([2H])NC(=O)c1nnc(NC(=O)C2CC23CC3)cc1Nc1ncccc1P(C)(C)=O (stereo not drawn) [Example 33]
- IC50 [1]: 2.9 nM
- IC50 [2, 4]: 3720 nM
- IC50 [3, 5]: 1480 nM

Structure (SMILES): [2H]C([2H])([2H])NC(=O)c1nnc(Nc2ccc(C(C)(C)O)c(F)n2)cc1Nc1ncccc1P(C)(C)=O [Example 34]
- IC50 [1]: 0.86 nM
- IC50 [2, 4]: 1350 nM
- IC50 [3, 5]: 350 nM

Structure (SMILES): [2H]C([2H])([2H])NC(=O)c1nnc(Nc2ccc(C(C)(C)N)cn2)cc1Nc1ncccc1P(C)(C)=O [Example 35]
- IC50 [1]: 1.2 nM
- IC50 [2, 4]: 1770 nM
- IC50 [3, 5]: 2290 nM

Structure (SMILES): [2H]C([2H])([2H])NC(=O)c1nnc(Nc2cc(Cl)c(C(C)(C)O)cn2)cc1Nc1ncccc1P(C)(C)=O [Example 36]
- IC50 [1]: 0.53 nM
- IC50 [2, 4]: 927 nM
- IC50 [3, 5]: 905 nM

Structure (SMILES): [2H]C([2H])([2H])NC(=O)c1nnc(Nc2ccc(Cl)cn2)cc1Nc1ncccc1P(C)(C)=O [Example 37]
- IC50 [1]: 0.38 nM
- IC50 [2, 4]: 52.8 nM
- IC50 [3, 5]: 74 nM

Structure (SMILES): [2H]C([2H])([2H])NC(=O)c1nnc(Nc2ccc(C(F)(F)F)cn2)cc1Nc1ncccc1P(C)(C)=O [Example 39]
- IC50 [1]: 0.34 nM
- IC50 [2, 4]: 59.4 nM
- IC50 [3, 5]: 217 nM

Structure (SMILES): [2H]C([2H])([2H])NC(=O)c1nnc(Nc2cccc(C(F)(F)F)n2)cc1Nc1ncccc1P(C)(C)=O [Example 40]
- IC50 [1]: 0.46 nM
- IC50 [2, 4]: 256 nM
- IC50 [3, 5]: 137 nM

Structure (SMILES): [2H]C([2H])([2H])NC(=O)c1nnc(Nc2ccc(C(O)(C(F)(F)F)C(F)(F)F)cn2)cc1Nc1ncccc1P(C)(C)=O [Example 41]
- IC50 [1]: 0.92 nM
- IC50 [2, 4]: 322 nM
- IC50 [3, 5]: 206 nM

Structure (SMILES): [2H]C([2H])([2H])NC(=O)c1nnc(Nc2ccc(N3CCOCC3)cn2)cc1Nc1ncccc1P(C)(C)=O [Example 42]
- IC50 [1]: 0.62 nM
- IC50 [2, 4]: 298 nM
- IC50 [3, 5]: 266 nM
